Where two headings read alike, the source gives them in different places.

Consider three compounds from patent publication US10669283B2, “Compound and pharmacologically acceptable salt thereof” (MEIJI SEIKA PHARMA CO., LTD., priority 2016, dated 2020).

The nature of series [1]: Hepatic metabolic stability (rat liver microsome method). The series is classed as in vitro ADME. To be noted: rat liver microsomes 0.5 mg/mL, test substance 1 μM, NADPH 1 mM, 37° C., 30 minutes. In short, it runs like this: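 Test compound (1 μM) preincubated with rat liver microsomes (0.5 mg/mL) in 100 mM potassium phosphate pH 7.4 at 37° C; NADPH (1 mM) started reaction, acetonitrile stopped it at 0 and 30 min. LC-MS quantitation; % remaining = 30-min/0-min ×100, graded A ≥75%, B 60–<75%, C 45–<60%, D <45%.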

For another series, the system named is PDE4. As to the kind of experiment: PDE4 inhibition, scintillation proximity assay (SPA).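 On PDE4 Inhibitory Activity (concentration for the inhibition rate of 50%): A below 100 nM B 100 to below 1000 nM C 1000 nM or more.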 The series is classed as biochemical. An outline of the steps: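 Compound pre-diluted 1:10 in 50 mM Tris-HCl pH 7.4, 8.3 mM MgCl2, 1.7 mM EGTA, 3 mg/mL BSA, then incubated with PDE4 and [2,8-3H]-cAMP for 120 min at room temperature. Product captured on ZnSO4-containing YSi-SPA beads for 15 min; radioactivity counted against no-enzyme blank and DMSO control.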
(In a scintillation proximity assay essentially only radioactivity close to the scintillant gives light.)

Where [2] appears, read: scintillation proximity assay (SPA), evaluated as classes A, B, C, read-out: PDE4 Inhibitory Activity (concentration for the inhibition rate of 50%).

`c1csc(-c2ccc(O[C@@H]3CCOC3)c3nc(N4CC5CC(C4)N5)oc23)n1` [Example 324, 2-(3,6-Diazabicyclo[3.1.1]heptan-3-yl)-4-(((R)-tetrahydrofuran-3-yl)oxy)-7-(thiazol-2-yl)benzo[d]oxazole]: in series [1], the “Residual ratio (% remaining for 30-minute reaction)” value is “A (a % remaining rate of 75% or more)”. Besides, the IC50 with PDE4 (setting [2]) is less than 100 nM.
With `O=S(=O)(NCCO)c1ccc(-c2nccs2)c2oc(N3CC4CC(C3)N4)nc12` [Example 385, 2-(3,6-diazabicyclo[3.1.1]heptan-3-yl)-N-(2-hydroxyethyl)-7-(thiazol-2-yl) benzo[d]oxazole-4-sulfonamide], the “Residual ratio (% remaining for 30-minute reaction)” value in series [1] is listed as “A (a % remaining rate of 75% or more)”. Further, the IC50 in the series with PDE4 (scintillation proximity assay, class symbols, read-out: PDE4 Inhibitory Activity) was less than 100 nM.
In the case of `OC1CC(Oc2ccc(-c3nccs3)c3oc(N4CC5CC(C4)N5)nc23)C1` (stereo not drawn) [Example 285, 3-((2-(3,6-Diazabicyclo[3.1.1]heptan-3-yl)-7-(thiazol-2-yl)benzo[d]oxazol-4-yl)oxy)cyclobutan-1-ol], the “Residual ratio (% remaining for 30-minute reaction)” value in series [1] is “A (a % remaining rate of 75% or more)”. Besides, in the series on PDE4 (setting [2]), the IC50 was less than 100 nM.
